From article PMC3242598, “Phase I study of BIBF 1120 with docetaxel and prednisone in metastatic chemo-naive hormone-refractory prostate cancer patients” (British Journal of Cancer, 2011)
Entries after “also recorded” stand apart in the source; their conditions may differ. Like-named read-outs stand apart in the source and are kept apart here.

Key:
[1] = tested on: human prostate cancer xenografts; parameters: method as in Hilberg et al, 2008; details: human prostate cancer xenografts in athymic mice; ref Hilberg et al, 2008; cited from earlier work
VEGFR = tested on: VEGFR; parameters: method as in Hilberg et al, 2008; details: after a 1-h exposure; ref Hilberg et al, 2008; cited from earlier work
[2] = Plasma pharmacokinetics of BIBF 1120 (HPLC-MS/MS); format: in vivo, human; details: for Cmax / AUC(0-t) / half-life / Tmax: human, plasma, po, 250 mg; for Cmax: read-out: Cmax, gMean (gCV%); for AUC(0-t): read-out: AUC0−24, gMean (gCV%); for half-life: read-out: t1/2, gMean (gCV%) (converted); for Tmax: read-out: tmax, median and range
Experimental: Plasma concentrations of BIBF 1120 and docetaxel were analysed by a validated method using high-performance liquid chromatography coupled with tandem mass spectrometry (HPLC-MS/MS) in the Department of Drug Metabolism and Pharmacokinetics (Boehringer Ingelheim Pharma GmbH & Co KG, Biberach, Germany). The assay comprises sample clean-up by automated solid-phase extraction in a 96-well plate format. Chromatography was achieved on an analytical C18 reversed phase HPLC column with gradient elution. The substance was detected and quantified by HPLC-MS/MS using electrospray ionisation in the positive ion mode. Docetaxel was analysed by HPLC-MS/MS using paclitaxel as an internal standard. The assay comprises sample clean-up by liquid–liquid extraction and chromatography on an analytical C18 reversed phase HPLC column with isocratic elution. […] For docetaxel, the lower limit was 2.5 ng ml^−1 plasma, using a plasma volume of 100 μl. The calculated parameters were plasmatic peak concentrations following the first dose (Cmax), half-life time (t1/2), area under the plasma concentration–time curve (AUCt), apparent clearance after oral administration, and apparent volume of distribution during the terminal phase.

[3] = tested on: metastatic hormone-refractory prostate cancer (HRPC); test: Evaluation of response (PSA decline, RECIST); format: in vivo, human
Experimental: All patients who received at least one dose of BIBF 1120 or docetaxel were assessed during the safety analysis. Intensity of AEs was graded according to Common Terminology Criteria for Adverse Events (CTCAE) version 3.0. Objective response was defined as a PSA decline ⩾50% from the baseline value over two consecutive courses and/or tumour response according to RECIST criteria ([Therasse et al, 2000]).

[4] = oral 250 mg BID, day 2 of treatment cycle 2, with docetaxel
[5] = male, oral 250 mg BID, day 2 of treatment cycle 1
[6] = male, oral 250 mg BID, treatment cycle 2

## COC(=O)c1ccc2c(c1)NC(=O)/C2=C(\Nc1ccc(N(C)C(=O)CN2CCN(C)CC2)cc1)c1ccccc1 [BIBF 1120]
[1]
  Antitumour activity in vivo: potent antitumour activity
VEGFR
  Duration of block of VEGFR activation: > 32 h
[2]; 100–250 mg BID
  Exposure with increasing doses: dose-dependent increase in exposure
[2]; BIBF 1120 BID dosing
  Time to reach steady state: 7 days
[2]; combination therapy
  PK interaction between BIBF 1120 and docetaxel/prednisone: no interactions; also recorded: no hint for PK interaction; also recorded: no indication of PK interaction
[2]; [4]
  Cmax: 0.0459 µg/mL
  Cmax, gMean (gCV%): 45.8 (98.5) ng ml^−1
[2]; [5]
  AUC(0-t): 0.454 µg·h/mL
  half-life: 7.03 h
[2]; male, oral 250 mg BID, day 2 of treatment cycle 1, with docetaxel
  Cmax: 0.065 µg/mL
[2]; male, oral 250 mg BID, day 2 of treatment cycle 2
  half-life: 15.4 h
[2]; male, oral 250 mg BID, treatment cycle 1
  Tmax: 3 h
[2]; [6]
  AUC(0-t): 0.41 µg·h/mL
  Tmax: 2.08 h
[3]; 250 mg BID + docetaxel/prednisone
  Estimated progression-free survival rate at 24 weeks: 56%
[3]; 19 assessable patients, BIBF 1120 + docetaxel/prednisone
  Patients with ⩾50% reduction in PSA levels from baseline (PSA response): 68.4%
[3]; 19 evaluable patients, BIBF 1120 100–250 mg BID + docetaxel/prednisone
  Patients with disease response (PSA and/or RECIST): 73.7%
[3]; BIBF 1120 + docetaxel/prednisone
  Patients with complete biological response with normalisation of PSA: 33.3%
